Source: patent publication US20120301551A1, “COMPOUNDS AND COMPOSITIONS FOR TREATING NEURONAL DEATH OR NEUROLOGICAL DYSFUNCTION” (Neurotech Pharmaceuticals Co., Ltd., priority 2005, published 2012)

Key:
[1] = system: APPswe/PS1deltaE9 double transgenic mice; assay: elevated plus maze in APPswe/PS1deltaE9 double transgenic mice; type: in vivo, mouse; conditions: 25 mg/kg/day for 14.5 months (3~17.5 months)
Description: After administration of 14.5 months, Elevated plus maze test was performed to evaluate the behavior improvement like example 10-3-2 (mean±SEM, n=3-5).
(§1) 17.5 month-old APPswe/PS1deltaE9 double transgenic mice were fed chow alone (saline only), or containing 25 mg/kg/day of chemical—01, for […] (3˜17.5 month).
(§2) The anxiety function was analyzed by elevated plus maze test. The time spent in the open arm was recorded in the elevated plus maze.

G93A mouse = assay: motor performance, onset and survival in G93A mouse (chemical 01); type: in vivo
Description: G93A (Glycine Alanine) mouse having similar pathophysiological characteristics with ALS human patient was used to evaluate therapeutic effect of drug in ALS (amyotrophic lateral sclerosis), one of main degenerative brain diseases. It was analyzed whether treatment with 5 mg/kg/day or 20 mg/kg/day of chemical 01 improved motor performance ability or not.
In PaGE test and Rotarod test, onset and mortality were analyzed for four mice per each group (FIGS. 13C-D). […] In survival ability, G93A mouse fed with chow only, G93A mouse treated with 5 mg/kg/day of chemical 01 and G93A mouse treated with 20 mg/kg/day of chemical 01 survived for 131.57 days, 153.13 days, and 150.73 days, respectively. Treatment with chemical 01 extended survival rate of G93A mouse (FIG. 13D).

Tg2576 transgenic mice [2] = assay: elevated plus maze in Tg2576 transgenic mice; type: in vivo, mouse; conditions: 25 mg/kg/day for 5 months (9~14 months)
Description: 14 month-old Tg2576 transgenic mice were fed chow alone, or containing 25 mg/kg/day of chemical 01, for 5 months (9˜14 months). After administration of 5 months, Elevated plus maze test was performed to evaluate the behavior improvement. Elevated plus maze has two open arms (30 cm×6 cm×0.5 cm) and two closed arms (30 cm×6 cm×15 cm), and also has 6 cm×6 cm of center platform. In Elevated plus maze test, mouse was carefully laid in the center with the head of the mouse toward open arm. The time that the mouse spent in the open arm was recorded for 5 minutes (mean±SEM, n=2).
14 month-old Tg2576 transgenic mice were fed chow alone (saline only), or containing 25 mg/kg/day of chemical—01, for 5 months (9˜14 month).
as §2

[3] = system: APPswe/PS1deltaE9 double transgenic mice; assay: brain Aβ40/Aβ42 levels in APPswe/PS1deltaE9 double transgenic mice (ELISA); type: in vivo, mouse
Description: SDS-soluble/insoluble Aβ40 or Aβ42 levels were analyzed by colorimetric sandwich ELISA kit (BIOSOURCE, Camarillo, Calif.).

Tg2576 transgenic mice [4] = assay: brain Aβ42/Aβ40 levels in Tg2576 transgenic mice (ELISA); type: in vivo, mouse; conditions: 25 mg/kg/d for 8 months (9~17 months)
Description: 17 month-old Tg2576 transgenic mice were fed chow alone, or containing 25 mg/kg/day of chemical 01, for 8 months before being sacrificed (9˜17 months). The level of Aβ42 or Aβ40 protein was quantitatively analyzed by colorimetric sandwich ELISA kit (BIOSOURCE, Camarillo, Calif.) (mean±SEM, n=2).
17 month-old Tg2576 transgenic mice were fed chow alone (saline only), or containing 25 mg/kg/day of chemical—01, for 8 months before being sacrificed (9˜17 month). SDS-soluble/insoluble Aβ42 or Aβ40 levels were analyzed by colorimetric sandwich ELISA kit (BIOSOURCE, Camarillo, Calif.).

Tg2576 transgenic mice [5] = assay: amyloid plaque burden in Tg2576 transgenic mice (Thioflavin-S); type: in vivo, mouse
Description: […] 18˜20 um brain cryo-sections were stained with 1% Thioflavin-S for 5 minutes and observed under fluorescence microscope system. Amyloid plaque burden/brain was quantified with MetaVue Image software (mean±SEM, n=2).
[…] 18˜20 μm brain sections stained 1% Thioflavin-S for 5 min and observed under fluorescence microscope system.

[6] = system: APPswe/PS1deltaE9 double transgenic mice; assay: Morris water maze in APPswe/PS1deltaE9 double transgenic mice; type: in vivo, mouse; conditions: 25 mg/kg/day chemical 01 or 62.5 mg/kg/day ibuprofen for 14.5 months (3~17.5 months)
Description: After administration of 14.5 months, the cognitive function was analyzed by Morris water maze test like example 10-3-1 (mean±SEM, n=3-5).
as §1
The cognitive function was analyzed by Morris water maze test. Mice ware trained to perform a hidden platform task in the Morris water maze. The latency to find the platform was recorded for each mouse.

gastric mucous membrane = gastric mucous membrane damage after oral administration; type: in vivo; conditions: 1,000 mg/kg orally administered
Description: FIG. 10 is results showing degrees of the gastric mucous membrane damage. Test samples were orally administered in a different dose. […] Aspirin was used as control.
Conventional NSAIDs have side effects causing damages to the gastric mucous membrane. Therefore, it was evaluated whether chemical 01 having anti-inflammatory effect causes the gastric damage or not. 30, 100 or 300 mg/kg of aspirin was orally administered as control.

IL-1β = assay: LPS-induced IL-1β production in BV2 cells; type: cell-based
Description: Suppressing effects of chemical 01 in BV2 cell lines on production of IL-1β, IL-6 or TNF-α were evaluated. BV2 cells were exposed to 1 ug/ml LPS (inflammation-inducing material) with inclusion of chemical 01 at indicated doses. After 4 hours, supernatant were collected and concentrations of TNF-a were evaluated. In addition, BV2 cells were treated by the same method, and 24 hours later, supernatant were collected and concentrations of IL-1β and IL-6 were evaluated (mean±SEM, n=3). BV2 cells treated with LPS only were used as control.

[7] = hydroxyl radical scavenging in test tube; type: biochemical
Description: In addition, scavenging effects of superoxide and hydroxyl radical in test tube were evaluated. Hydroxyl radical scavenging activities of 0.1 uM, 1 uM and 10 uM of chemical 01 were 13.35%, 33.33% and 71.72%, respectively.

[8] = system: Fas, FADD, cleaved caspase-8 and caspase-3; assay: Fas pathway in lumbar spinal cord of G93A transgenic mice (Western blot); conditions: at 12 weeks of age; 2-hydroxy-TTBA 30 mg/kg/d, Li^+ 200 mg/kg/d in the diet
Description: G93A transgenic mice received oral administration of 2-hydroxy-TTBA (30 mg/kg/d) in the diet from 8 weeks of age.

## O=C(O)c1cc(NCCc2ccc(C(F)(F)F)cc2)ccc1O [chemical 01, 2-Hydroxy-5-[2-(4-trifluoromethyl-phenyl)-ethylamino]-benzoic acid]
[1]
  time spent in the open arm: decreased the time
[1]; listed as chemical—01
  time spent in the open arm: spent less time
G93A mouse; 5 mg/kg/day
  survival: 153.13 days
G93A mouse; 5 mg/kg/day or 20 mg/kg/day
  onset: 125.67 days
G93A mouse; 20 mg/kg/day
  survival: 150.73 days
G93A mouse; 5 or 20 mg/kg/day in chow, from 14 weeks to 17 weeks
  motor performance versus control fed with general chow only (Rotarod, PaGE): better motor performance
Tg2576 transgenic mice [2]
  time spent in the open arm: decreased the time
Tg2576 transgenic mice [2]; listed as chemical—01
  time spent in the open arm: spent less time
[3]; 25 mg/kg/d chemical 01 or 62.5 mg/kg/day ibuprofen for 14.5 months
  SDS-soluble/insoluble Aβ40 or Aβ42 levels, in words: reduced
[3]; 25 mg/kg/day for 4 months (from 8.5 to 12.5 month-old)
  reduction in SDS-insoluble Aβ40 levels: 27%
[3]; 25 mg/kg/day for 7 months (from 3.5 to 10.5 months)
  reduction in SDS-insoluble Aβ40 levels: 42%
Tg2576 transgenic mice [4]
  SDS-soluble/insoluble Aβ42 and Aβ40 levels, in words: decreased
Tg2576 transgenic mice [4]; listed as chemical—01
  SDS-soluble/insoluble Aβ42 and Aβ40 levels, in words: reduced
Tg2576 transgenic mice [5]; 25 mg/kg/d for 8 months (9~17 month)
  amyloid plaque burden, in words: reduced significantly
Tg2576 transgenic mice [5]; 25 mg/kg/day in chow for 8 months (9~17 months)
  reduction of amyloid plaque burden compared to control: 39.2%
Tg2576 transgenic mice [5]; 100 mg/kg/day for 6 months (from 6 to 12 months)
  reduction in plaque burden: 62%
[6]
  escape latency / cognitive function (Morris water maze): shorter
Gastric mucous membrane
  gastric side effect (damage of the gastric mucous membrane): did not cause damage of the gastric mucous membrane
Gastric mucous membrane; listed as Chemical 01
  gastric side effect (damage of the gastric mucous membrane): did not cause the gastric side effect
IL-1β; 100 uM, 1 ug/ml LPS, 24 hours
  decrease of IL-1β released into media: about 80%
IL-1β; 1~100 uM
  IL-1β decrease, in words: dose-dependent manner
[7]
  IC50: 970 nM
[7]; 0.1 uM
  hydroxyl radical scavenging activity: 13.35%
[7]; 1 uM
  hydroxyl radical scavenging activity: 33.33%
[7]; 10 uM
  hydroxyl radical scavenging activity: 71.72%

## O=C(O)c1cc(NCc2c(F)c(F)c(C(F)(F)F)c(F)c2F)ccc1O [2-Hydroxy-TTBA, 2-hydroxy-5-(2,3,5,6-tetrafluoro-4-trifluoromethyl-benzylamino)-benzoic acid]
[8]
  levels of Fas, FADD, cleaved caspase-8 and caspase-3 (Fas pathway) in lumbar spinal cord: slightly attenuated
